Test results published in ChEMBL document CHEMBL6083208, “Integrating amino acids into Bcr-Abl inhibitors: design, synthesis, biological evaluation, and in silico studies” (RSC Med Chem, 2024).
Activity calls are given as the source filed them. The rule behind the calls is not given here.

Tests used:
[1] = Inhibition of Bcr-Abl T315Ialpha mutant (unknown origin) using Abltide as substrate incubated for 1 hr by luminescence based ADP-glo assay; set-up: species or system Homo sapiens
THP-1 = test: Antiproliferative activity against human THP-1 cells after 48 hrs by MTT assay; assay type: functional; set-up: concentration or dose not given beside the values
Bcr/Abl fusion protein = Bcr/Abl fusion protein (Homo sapiens, UniProt P00519); test: Inhibition of wild type Bcr-Abl (unknown origin) using Abltide as substrate incubated for 1 hr by luminescence based ADP-glo assay; assay type: protein assay
BaF3 [2] = test: Antiproliferative activity against mouse BaF3 cells harbouring Bcr-Abl T315I assessed of cell viability at 10 uM incubated for 72 hrs by Celltiter-glo luminescent cell viability assay relative to control; assay type: functional
K562 [3] = test: cells; settings: Homo sapiens, K562, 48 h
HEK293 = test: Antiproliferative activity against HEK293 cells after 48 hrs by MTT assay; assay type: toxicity, cell-based; set-up: concentration or dose not given beside the values; settings: human, hek293, 48 h
BaF3 [4] = test: Antiproliferative activity against mouse BaF3 cells harbouring Bcr-Abl T315I assessed of cell viability at 30 uM incubated for 72 hrs by Celltiter-glo luminescent cell viability assay relative to control; assay type: functional
BaF3 [5] = test: Antiproliferative activity against mouse BaF3 cells harbouring Bcr-Abl T315I assessed of cell viability at 2 uM incubated for 72 hrs by Celltiter-glo luminescent cell viability assay relative to control; assay type: functional
K562 [6] = test: Induction of apoptosis in human K562 cells assessed as late apoptotic cells at 1 uM measured after 48 hrs by annexin-V/FITC and propidium iodide double staining based flow cytometry analysis (reference value: 10.34%); assay type: functional
[7] = target: T1, Bcr/Abl fusion protein (Homo sapiens) (UniProt P00519+P11274); test: Inhibition of wild type BCR-ABL in human K562 cells assessed as inhibition of STAT5 phosphorylation level at high concentration measured after 48 hrs by Western blot analysis; assay type: cell-based
K562 [8] = test: Induction of apoptosis in human K562 cells assessed as late apoptotic cells at 20 uM measured after 48 hrs by annexin-V/FITC and propidium iodide double staining based flow cytometry analysis (reference value: 10.34%); assay type: functional
[9] = target: T1, Bcr/Abl fusion protein (Homo sapiens); test: Inhibition of wild type BCR-ABL in human K562 cells assessed as inhibition of STAT5 phosphorylation level at 20 uM measured after 48 hrs by Western blot analysis; assay type: cell-based
[10] = target: T1, Bcr/Abl fusion protein (Homo sapiens); test: Inhibition of wild type BCR-ABL in human K562 cells assessed as inhibition of Bcr-Abl phosphorylation level at high concentration measured after 48 hrs by Western blot analysis; assay type: cell-based
K562 [11] = test: Induction of apoptosis in human K562 cells assessed as necrotic cells at 20 uM measured after 48 hrs by annexin-V/FITC and propidium iodide double staining based flow cytometry analysis (reference value: 0.03%); assay type: functional
K562 [12] = test: Induction of apoptosis in human K562 cells assessed as early apoptotic cells at 20 uM measured after 48 hrs by annexin-V/FITC and propidium iodide double staining based flow cytometry analysis (reference value: 2.16%); assay type: functional
K562 [13] = test: Induction of cell cycle arrest in human K562 cells assessed as increase in accumulation of cells at G0/G1 phase measured after 48 hrs by PI staining based flow cytometry analysis; assay type: functional; settings: dose 1-20 µM
K562 [14] = test: Induction of apoptosis in human K562 cells assessed as viable cells at 1 uM measured after 48 hrs by annexin-V/FITC and propidium iodide staining double based flow cytometry analysis (reference value: 87.47%); assay type: functional; settings: read-out: Activity
K562 [15] = test: Induction of apoptosis in human K562 cells assessed as necrotic cells at 10 uM measured after 48 hrs by annexin-V/FITC and propidium iodide double staining based flow cytometry analysis (reference value: 0.03%); assay type: functional
K562 [16] = test: Induction of apoptosis in human K562 cells assessed as viable cells at 20 uM measured after 48 hrs by annexin-V/FITC and propidium iodide double staining based flow cytometry analysis (reference value: 87.47%); assay type: functional; settings: read-out: Activity
K562 [17] = test: Induction of apoptosis in human K562 cells assessed as viable cells at 10 uM measured after 48 hrs by annexin-V/FITC and propidium iodide double staining based flow cytometry analysis (reference value: 87.47%); assay type: functional; settings: read-out: Activity
K562 [18] = test: Induction of apoptosis in human K562 cells assessed as early apoptotic cells at 1 uM measured after 48 hrs by annexin-V/FITC and propidium iodide double staining based flow cytometry analysis (reference value: 2.16%); assay type: functional
K562 [19] = test: Induction of apoptosis in human K562 cells assessed as necrotic cells at 1 uM measured after 48 hrs by annexin-V/FITC and propidium iodide double staining based flow cytometry analysis (reference value: 0.03%); assay type: functional
K562 [20] = test: Induction of apoptosis in human K562 cells assessed as late apoptotic cells at 10 uM measured after 48 hrs by annexin-V/FITC and propidium iodide double staining based flow cytometry analysis (reference value: 10.34%); assay type: functional
[21] = target: T1, Bcr/Abl fusion protein (Homo sapiens); test: Inhibition of wild type BCR-ABL in human K562 cells assessed as inhibition of Bcr-Abl phosphorylation level at 20 uM measured after 48 hrs by Western blot analysis; assay type: cell-based
K562 [22] = test: Induction of apoptosis in human K562 cells assessed as early apoptotic cells at 10 uM measured after 48 hrs by annexin-V/FITC and propidium iodide double staining based flow cytometry analysis (reference value: 2.16%); assay type: functional

T1 sequence (P00519 whole entry, looked up, the tested form may be a part): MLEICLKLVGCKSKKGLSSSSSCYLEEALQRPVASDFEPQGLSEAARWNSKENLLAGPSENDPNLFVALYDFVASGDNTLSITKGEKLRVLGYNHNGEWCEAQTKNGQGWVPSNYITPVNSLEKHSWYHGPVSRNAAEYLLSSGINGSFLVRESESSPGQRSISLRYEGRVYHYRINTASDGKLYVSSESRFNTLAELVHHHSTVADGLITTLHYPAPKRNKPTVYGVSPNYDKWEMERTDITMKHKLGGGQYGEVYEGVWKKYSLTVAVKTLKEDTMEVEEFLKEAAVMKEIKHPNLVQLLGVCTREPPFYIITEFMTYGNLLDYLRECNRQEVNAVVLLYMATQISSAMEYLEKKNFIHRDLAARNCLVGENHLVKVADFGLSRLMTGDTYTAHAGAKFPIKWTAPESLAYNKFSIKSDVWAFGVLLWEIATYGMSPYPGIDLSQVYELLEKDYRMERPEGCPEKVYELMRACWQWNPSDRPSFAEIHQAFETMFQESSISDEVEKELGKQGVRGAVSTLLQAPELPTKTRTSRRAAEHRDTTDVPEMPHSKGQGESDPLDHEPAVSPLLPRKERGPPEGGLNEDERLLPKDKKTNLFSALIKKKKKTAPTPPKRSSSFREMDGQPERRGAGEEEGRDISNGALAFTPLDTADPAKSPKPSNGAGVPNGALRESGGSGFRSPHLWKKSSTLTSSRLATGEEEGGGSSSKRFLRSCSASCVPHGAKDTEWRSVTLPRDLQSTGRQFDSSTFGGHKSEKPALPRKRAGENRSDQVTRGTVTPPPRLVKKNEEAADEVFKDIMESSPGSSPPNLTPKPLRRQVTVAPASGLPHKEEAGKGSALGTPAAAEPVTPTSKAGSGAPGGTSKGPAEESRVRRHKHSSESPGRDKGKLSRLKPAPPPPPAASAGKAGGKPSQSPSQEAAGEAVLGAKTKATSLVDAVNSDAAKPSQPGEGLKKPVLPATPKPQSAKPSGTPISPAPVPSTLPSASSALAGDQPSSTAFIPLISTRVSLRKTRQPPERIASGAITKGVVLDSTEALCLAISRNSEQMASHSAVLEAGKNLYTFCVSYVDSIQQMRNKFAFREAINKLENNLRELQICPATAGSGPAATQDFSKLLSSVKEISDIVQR
T1 sequence (P11274 whole entry, looked up, the tested form may be a part): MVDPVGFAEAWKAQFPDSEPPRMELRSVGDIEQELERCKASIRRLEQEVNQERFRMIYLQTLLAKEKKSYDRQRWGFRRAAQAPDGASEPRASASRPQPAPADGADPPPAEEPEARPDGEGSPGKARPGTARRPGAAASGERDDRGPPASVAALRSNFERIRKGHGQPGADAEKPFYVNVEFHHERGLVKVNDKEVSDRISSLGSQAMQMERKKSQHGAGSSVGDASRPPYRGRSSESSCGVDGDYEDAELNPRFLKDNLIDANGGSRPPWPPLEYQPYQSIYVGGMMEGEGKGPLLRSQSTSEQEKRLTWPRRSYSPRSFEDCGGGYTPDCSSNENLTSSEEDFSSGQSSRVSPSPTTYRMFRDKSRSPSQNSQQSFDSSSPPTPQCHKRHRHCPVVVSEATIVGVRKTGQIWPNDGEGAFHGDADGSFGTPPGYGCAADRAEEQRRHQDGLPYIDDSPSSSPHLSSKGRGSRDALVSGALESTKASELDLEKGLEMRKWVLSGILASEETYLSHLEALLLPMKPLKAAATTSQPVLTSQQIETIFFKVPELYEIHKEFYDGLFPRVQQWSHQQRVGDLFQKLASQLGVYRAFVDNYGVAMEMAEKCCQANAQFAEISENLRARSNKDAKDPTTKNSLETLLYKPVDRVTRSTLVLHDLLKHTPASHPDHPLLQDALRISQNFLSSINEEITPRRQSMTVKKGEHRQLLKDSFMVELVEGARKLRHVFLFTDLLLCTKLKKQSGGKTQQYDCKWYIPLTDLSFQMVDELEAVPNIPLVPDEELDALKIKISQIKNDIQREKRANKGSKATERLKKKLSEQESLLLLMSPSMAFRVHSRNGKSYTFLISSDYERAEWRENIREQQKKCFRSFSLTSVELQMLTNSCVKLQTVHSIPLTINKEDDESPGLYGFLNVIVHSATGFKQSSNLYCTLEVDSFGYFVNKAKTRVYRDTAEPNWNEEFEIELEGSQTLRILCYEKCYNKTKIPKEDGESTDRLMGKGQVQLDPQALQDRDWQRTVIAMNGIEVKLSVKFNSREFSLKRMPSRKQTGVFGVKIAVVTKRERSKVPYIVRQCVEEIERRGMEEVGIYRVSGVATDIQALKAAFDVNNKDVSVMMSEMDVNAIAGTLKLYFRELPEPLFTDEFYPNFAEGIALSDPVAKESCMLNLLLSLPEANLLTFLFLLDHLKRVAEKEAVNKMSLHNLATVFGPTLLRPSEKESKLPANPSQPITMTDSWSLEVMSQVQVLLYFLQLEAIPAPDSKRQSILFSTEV
Chain of Bcr/Abl fusion protein (P00519 whole entry, the tested form may be a part): as the sequence (P00519 whole entry, looked up, the tested form may be a part) above
Chain of Bcr/Abl fusion protein (P11274 whole entry, further chain, the tested form may be a part): as the sequence (P11274 whole entry, looked up, the tested form may be a part) above

| Compound | IC50 [1] | IC50 (Bcr/Abl fusion protein) | IC50 (K562 [3]) | Activity (THP-1) | inhibition at 10 µM (BaF3 [2]) | Activity (HEK293) | inhibition at 30 µM (BaF3 [4]) | inhibition at 2 µM (BaF3 [5]) | further results |
| --- | --- | --- | --- | --- | --- | --- | --- | --- | --- |
| CC(C)(C)OC[C@H](NC(=O)c1ccc(-c2ccnc(NS(C)(=O)=O)c2)cc1)C(=O)Nc1ccc(Cl)c(C(F)(F)F)c1 | 51 nM | 0.33 nM | 0.19 nM | 94% | 27.6% | 93% | 96.7% | 7.49% |  |
| CC(C)(C)[C@H](NC(=O)c1ccc(-c2cncc(C(=O)NC3CC3)c2)cc1)C(=O)Nc1ccc(Cl)c(C(F)(F)F)c1 | 140 nM | 8.02 nM | 3.34 nM | 100% | 42.6% | 91% | 100% | 5.84% |  |
| CC(=O)Nc1cc(-c2ccc(C(=O)N[C@@H](COC(C)(C)C)C(=O)Nc3ccc(Cl)c(C(F)(F)F)c3)cc2)ccn1 | 37.5 nM | 0.231 nM | 0.06 nM | 66% | 64.1% | 95% | 98.1% | 7.66% | Activity (K562 [6]): 24.67%; inhibition [7]: Active; Activity (K562 [8]): 66.61%; inhibition [9]: Active; inhibition [10]: Active; Activity (K562 [11]): 0.07%; Activity (K562 [12]): 1.52%; Activity (K562 [13]): Dose-dependent-effect; viability at 1 µM (K562 [14]): 73.9%; Activity (K562 [15]): 0.07%; viability at 20 µM (K562 [16]): 31.8%; viability at 10 µM (K562 [17]): 59.4%; Activity (K562 [18]): 1.37%; Activity (K562 [19]): 0.07%; Activity (K562 [20]): 38.85%; inhibition [21]: Active; Activity (K562 [22]): 1.64% |

Further lines, with some results ahead:

| IC50 [1] | IC50 (Bcr/Abl fusion protein) | IC50 (K562 [3]) | Compound | Activity (THP-1) | inhibition at 10 µM (BaF3 [2]) | Activity (HEK293) | inhibition at 30 µM (BaF3 [4]) | inhibition at 2 µM (BaF3 [5]) | further results |
| --- | --- | --- | --- | --- | --- | --- | --- | --- | --- |
| 66 nM | 0.33 nM | 0.85 nM | CC(=O)Nc1ccc(-c2cccc(C(=O)N[C@@H](CO)C(=O)Nc3ccc(Cl)c(C(F)(F)F)c3)c2)cn1 | 100% | 24.5% | 85% | 90% | -1.17% |  |
| 148 nM | 1.6 nM | 2.13 nM | Nc1ccc(-c2cccc(C(=O)N[C@@H](CO)C(=O)Nc3ccc(Cl)c(C(F)(F)F)c3)c2)cn1 | 84% | 15.2% | 93% | 88.3% | -0.03% |  |
| 138 nM | 10.6 nM | 2.59 nM | CC(C)(C)OC[C@H](NC(=O)c1cccc(-c2ccc(NS(C)(=O)=O)nc2)c1)C(=O)Nc1ccc(Cl)c(C(F)(F)F)c1 | 77% | 99.9% | 88% | 96.7% | 0.62% |  |
